System: P12-Ichikawa
Assay: cell viability relative to DMSO control; higher = less cytotoxic
Settings: 48 h
Outline: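 Three leukemia lines were tested: NOMO1 and SEM at 500 cells/well and P12-Ichikawa at 1000 cells/well. Each was adapted for at least four passages in each medium and seeded in 5 μl in 1536-well plates, and library compounds in DMSO were pin-dosed from 47 μM to 0.79 nM in 11 threefold steps. After 48 h at 37°C, CellTiter-Glo One luminescence was read. Viability is a percentage relative to DMSO wells on each plate, with cell-free wells as background.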

[1] = HPLM + 10% dialyzed FBS, 0.000781 µM
[2] = HPLM + 10% dialyzed FBS, 0.00234 µM
[3] = HPLM + 10% dialyzed FBS, 0.00702 µM
[4] = HPLM + 10% dialyzed FBS, 0.0211 µM
[5] = HPLM + 10% dialyzed FBS, 0.0632 µM
[6] = HPLM + 10% dialyzed FBS, 0.19 µM
[7] = HPLM + 10% dialyzed FBS, 0.569 µM
[8] = HPLM + 10% dialyzed FBS, 1.71 µM
[9] = HPLM + 10% dialyzed FBS, 5.12 µM
[10] = HPLM + 10% dialyzed FBS, 15.4 µM
[11] = HPLM + 10% dialyzed FBS, 46.1 µM
[12] = RPMI 5 mM glucose + 10% FBS, 0.000781 µM
[13] = RPMI 5 mM glucose + 10% FBS, 0.00234 µM
[14] = RPMI 5 mM glucose + 10% FBS, 0.00702 µM
[15] = RPMI 5 mM glucose + 10% FBS, 0.0211 µM
[16] = RPMI 5 mM glucose + 10% FBS, 0.0632 µM
[17] = RPMI 5 mM glucose + 10% FBS, 0.19 µM
[18] = RPMI 5 mM glucose + 10% FBS, 0.569 µM
[19] = RPMI 5 mM glucose + 10% FBS, 1.71 µM
[20] = RPMI 5 mM glucose + 10% FBS, 5.12 µM
[21] = RPMI 5 mM glucose + 10% FBS, 15.4 µM
[22] = RPMI 5 mM glucose + 10% FBS, 46.1 µM
[23] = RPMI 5 mM glucose + 10% dialyzed FBS, 0.000781 µM
[24] = RPMI 5 mM glucose + 10% dialyzed FBS, 0.00234 µM
[25] = RPMI 5 mM glucose + 10% dialyzed FBS, 0.00702 µM
[26] = RPMI 5 mM glucose + 10% dialyzed FBS, 0.0211 µM
[27] = RPMI 5 mM glucose + 10% dialyzed FBS, 0.0632 µM
[28] = RPMI 5 mM glucose + 10% dialyzed FBS, 0.19 µM
[29] = RPMI 5 mM glucose + 10% dialyzed FBS, 0.569 µM
[30] = RPMI 5 mM glucose + 10% dialyzed FBS, 1.71 µM
[31] = RPMI 5 mM glucose + 10% dialyzed FBS, 5.12 µM
[32] = RPMI 5 mM glucose + 10% dialyzed FBS, 15.4 µM
[33] = RPMI 5 mM glucose + 10% dialyzed FBS, 46.1 µM

## Fc1cc(-c2cccc3ncc(-c4cnn(C5CCNCC5)c4)nc23)cc(F)c1CN1CCOCC1
[1]
  cell viability: 119%
[2]
  cell viability: 113%
[3]
  cell viability: 122%
[4]
  cell viability: 115%
[5]
  cell viability: 123%
[6]
  cell viability: 118%
[7]
  cell viability: 108%
[8]
  cell viability: 113%
[9]
  cell viability: 68.8%
[10]
  cell viability: 57.7%
[11]
  cell viability: 28.9%
[12]
  cell viability: 122%
[13]
  cell viability: 123%
[14]
  cell viability: 120%
[15]
  cell viability: 118%
[16]
  cell viability: 122%
[17]
  cell viability: 118%
[18]
  cell viability: 118%
[19]
  cell viability: 120%
[20]
  cell viability: 91.2%
[21]
  cell viability: 70.7%
[22]
  cell viability: 27.1%
[23]
  cell viability: 119%
[24]
  cell viability: 122%
[25]
  cell viability: 119%
[26]
  cell viability: 114%
[27]
  cell viability: 110%
[28]
  cell viability: 120%
[29]
  cell viability: 123%
[30]
  cell viability: 101%
[31]
  cell viability: 87.2%
[32]
  cell viability: 60.1%
[33]
  cell viability: 15.1%

## O=C(Cc1cccc(OC(F)(F)F)c1)Nc1ccc(CCCCc2nnc(NC(=O)Cc3ccccn3)s2)nn1
[1]
  cell viability: 120%
[2]
  cell viability: 118%
[3]
  cell viability: 126%
[4]
  cell viability: 112%
[5]
  cell viability: 115%
[6]
  cell viability: 107%
[7]
  cell viability: 101%
[8]
  cell viability: 99.4%
[9]
  cell viability: 103%
[10]
  cell viability: 91.7%
[11]
  cell viability: 95.8%
[12]
  cell viability: 121%
[13]
  cell viability: 113%
[14]
  cell viability: 121%
[15]
  cell viability: 115%
[16]
  cell viability: 103%
[17]
  cell viability: 95.6%
[18]
  cell viability: 83%
[19]
  cell viability: 83.2%
[20]
  cell viability: 71.2%
[21]
  cell viability: 77.8%
[22]
  cell viability: 76.5%

## CC(=O)N1CCN(c2ccc(OCc3nn(C)c(C)c3-c3cccc4c(CCCOc5cc(C)c(Cl)c(C)c5)c(C(=O)O)n(Cc5cccnc5)c34)cc2)CC1
[1]
  cell viability: 104%
[2]
  cell viability: 113%
[3]
  cell viability: 112%
[4]
  cell viability: 115%
[5]
  cell viability: 114%
[6]
  cell viability: 111%
[7]
  cell viability: 113%
[8]
  cell viability: 107%
[9]
  cell viability: 115%
[10]
  cell viability: 113%
[11]
  cell viability: 39.2%
[12]
  cell viability: 105%
[13]
  cell viability: 106%
[14]
  cell viability: 115%
[15]
  cell viability: 118%
[16]
  cell viability: 120%
[17]
  cell viability: 127%
[18]
  cell viability: 116%
[19]
  cell viability: 123%
[20]
  cell viability: 125%
[21]
  cell viability: 126%
[22]
  cell viability: 64.9%
[23]
  cell viability: 104%
[24]
  cell viability: 115%
[25]
  cell viability: 115%
[26]
  cell viability: 122%
[27]
  cell viability: 125%
[28]
  cell viability: 121%
[29]
  cell viability: 112%
[30]
  cell viability: 110%
[31]
  cell viability: 118%
[32]
  cell viability: 115%
[33]
  cell viability: 66.7%

## Cc1cc(Nc2ncc(Cl)c(Nc3ccccc3[S+](=O)([O-])C(C)C)n2)c(OC(C)C)cc1C1CCNCC1
[1]
  cell viability: 111%
[2]
  cell viability: 113%
[3]
  cell viability: 110%
[4]
  cell viability: 117%
[5]
  cell viability: 112%
[6]
  cell viability: 115%
[7]
  cell viability: 101%
[8]
  cell viability: 105%
[9]
  cell viability: 105%
[10]
  cell viability: 90.6%
[11]
  cell viability: 30.2%
[12]
  cell viability: 111%
[13]
  cell viability: 104%
[14]
  cell viability: 113%
[15]
  cell viability: 118%
[16]
  cell viability: 125%
[17]
  cell viability: 112%
[18]
  cell viability: 108%
[19]
  cell viability: 96.1%
[20]
  cell viability: 94.1%
[21]
  cell viability: 69.9%
[22]
  cell viability: 5.5%
[23]
  cell viability: 117%
[24]
  cell viability: 117%
[25]
  cell viability: 118%
[26]
  cell viability: 116%
[27]
  cell viability: 115%
[28]
  cell viability: 117%
[29]
  cell viability: 111%
[30]
  cell viability: 113%
[31]
  cell viability: 107%
[32]
  cell viability: 89.3%
[33]
  cell viability: 10.5%

From the supplement of paper PMC11451515
